Experimental data taken from PubChem BioAssay AID1919003 (Molecular Pharmacology Branch, DTP, NCI, 2023).

System: 786-0 complex spheroids with HUVEC/MSC, growth % test/control
Test: Anticancer human tumor 786-0 cell line growth inhibition [AhR];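 also: compound exposure lasted seven days before the read-out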
Conditions: for IC50: curve of first compound; for viability, T/C: stronger effect = lower value
Description: Multicellular complex tumor spheroid response to aryl hydrocarbon receptor antagonists in combination with a variety of drugs and investigational agents in selected tumor cell lines
The current study was undertaken to assess response to aryl hydrocarbon receptor antagonists in combination with standard-of-care drugs and investigational agents in solid tumor complex spheroid models. Complex spheroids include a stromal component modeled by human endothelial cells (HUVEC) and fibroblasts modeled by human mesenchymal stem cells (MSCs). The concentration ranges selected for each drug and investigational agent were based upon clinically achievable concentrations if the clinical Cmax of the agent was known.
Compounds. The drugs and investigational agents: BAY 2416964 (NSC825713), GNF351 (NSC835774), CH-223191 (NSC835775), CPI-455 (NSC825282), aza-TdCyd (NSC777586), decitabine (NSC127716), belinostat (NSC758774), entinostat (NSC756642), pevonedistat (NSC761192), tazemetostat (NSC777109), talazoparib (NSC765396), olaparib (NSC753686), selinexor (NSC780203), nedisertib (M3814, NSC802822), bortezomib (NSC756655), venetoclax (NSC766270), doxorubicin (NSC123127), elimusertib (BAY189344, NSC800525), ceralasertib (AZD6738, NSC777638), TAK-243 (NSC785004), alisertib (NSC759677), etoposide (NSC141540), topotecan (NSC609699), eribulin (NSC707389), gemcitabine (NSC613327), carboplatin (NSC241240), cisplatin (NSC119875), and SN-38 (NSC673596) were obtained from the National Cancer Institute (NCI) Developmental Therapeutics Program Chemical Repository (32). The FDA-approved anticancer drug set is available from the Developmental Therapeutics Program at https://dtp.cancer.gov/organization/dscb/obtaining/available plates.htm. […] The stock solutions were prepared in dimethyl sulfoxide (DMSO, Sigma-Aldrich, St. Louis, MO, cat. D2650), except for the platinum compounds which were prepared in saline (Quality Biological, Gaithersburg, MD, cat. 114-055-101), at 800-fold the tested concentration and stored at -70 degrees C prior to their use. All drugs and investigational agents were tested over a range starting from a high concentration at or near the clinical Cmax and decreasing in half-log increments. If the clinical Cmax for an agent had not been determined, the highest concentration tested was 10 microM (Table 1).
Cell Culture. All cells were maintained in an incubator at 37 degrees C and 5% CO2 with 95% humidity. The PDC lines were cultured according to standard operating procedures established by the NCI PDMR (https://pdmr.cancer.gov). Briefly, all PDCs were thawed and cultured in Matrigel-coated flasks prepared with a working solution of 1X Ham's F-12 nutrient mix, without supplementation (Invitrogen, Waltham, MA, cat. 11765054), 100 U/mL penicillin-streptomycin (Invitrogen, cat. 15140122), and 2.5% Matrigel (Corning Inc., Corning, NY, cat. 354248) for the first three passages. All PDCs were cultured in complete DMEM/F-12 media containing advanced DMEM/F-12 (Invitrogen, cat. 12634028), 4.9% defined fetal bovine serum, heat inactivated (HyClone Laboratories Inc., Logan, UT, cat. SH30070.03HI), 389 ng/mL hydrocortisone (Sigma-Aldrich, cat. H4001), 9.7 ng/mL human EGF recombinant protein (Invitrogen, cat. PHG0313), 23.4 microg/mL adenine (Sigma-Aldrich, cat. A2786), 97.3 U/mL penicillin-streptomycin (Invitrogen, cat. 15140122), 1.9 mM L-glutamine (Invitrogen, cat. 25030081), and 9.7 microM Y-27632 dihydrochloride (Tocris Bioscience, Bristol, United Kingdom, cat. 1254). The PDCs were cultured in complete DMEM/F12 media without 10 microM Y-27632 dihydrochloride for at least two passages prior to the screen. The established cell lines NCI-H1341 and […] were cultured in DMEM/F-12, HEPES (Invitrogen, cat. 11330032), 5% defined fetal bovine serum (HyClone Laboratories Inc., cat. SH30070.03), ITS premix universal culture supplement [insulin (5 microg/mL), transferrin (5 microg/mL), and selenious acid (5 ng/mL)] […]

[1] = second compound 0.1 µM, first compound 0.0316 µM
[2] = second compound 0.1 µM, first compound 0.1 µM
[3] = second compound 0.1 µM, first compound 0.316 µM
[4] = second compound 0.1 µM, first compound 1 µM
[5] = second compound 0.1 µM, first compound 3.16 µM
[6] = second compound 0.1 µM, first compound 10 µM
[7] = second compound 0.316 µM, first compound 0.0316 µM
[8] = second compound 0.316 µM, first compound 0.1 µM
[9] = second compound 0.316 µM, first compound 0.316 µM
[10] = second compound 0.316 µM, first compound 1 µM
[11] = second compound 0.316 µM, first compound 3.16 µM
[12] = second compound 0.316 µM, first compound 10 µM
[13] = second compound 1 µM, first compound 0.0316 µM
[14] = second compound 1 µM, first compound 0.1 µM
[15] = second compound 1 µM, first compound 0.316 µM
[16] = second compound 1 µM, first compound 1 µM
[17] = second compound 1 µM, first compound 3.16 µM
[18] = second compound 1 µM, first compound 10 µM
[19] = second compound 3.16 µM, first compound 0.0316 µM
[20] = second compound 3.16 µM, first compound 0.1 µM
[21] = second compound 3.16 µM, first compound 0.316 µM
[22] = second compound 3.16 µM, first compound 1 µM
[23] = second compound 3.16 µM, first compound 3.16 µM
[24] = second compound 3.16 µM, first compound 10 µM
[25] = second compound 10 µM, first compound 0.0316 µM
[26] = second compound 10 µM, first compound 0.1 µM
[27] = second compound 10 µM, first compound 0.316 µM
[28] = second compound 10 µM, first compound 1 µM
[29] = second compound 10 µM, first compound 3.16 µM
[30] = second compound 10 µM, first compound 10 µM

Question: What does the source list for `CCc1c2c(nc3ccc(O)cc13)-c1cc3c(c(=O)n1C2)COC(=O)[C@]3(O)CC` + CC(CO)NC(=O)c1cc(-c2ccc(Cl)cc2)nn(-c2cnn(C)c2)c1=O?
Answer: IC50 (second compound 0.1 µM): 5.22 nM; IC50 (second compound 0.316 µM): 4.94 nM; IC50 (second compound 1 µM): 4.22 nM; IC50 (second compound 3.16 µM): 3.06 nM; IC50 (second compound 10 µM): 2.22 nM; viability, T/C (second compound 0.1 µM, first compound 0.000949 µM): 98.5%; viability, T/C (second compound 0.1 µM, first compound 0.003 µM): 82.1%; viability, T/C (second compound 0.1 µM, first compound 0.00949 µM): 15.3%; viability, T/C (second compound 0.1 µM, first compound 0.03 µM): 5.93%; viability, T/C (second compound 0.1 µM, first compound 0.0949 µM): 2.72%; viability, T/C (second compound 0.1 µM, first compound 0.3 µM): 2.09%; viability, T/C (second compound 0.316 µM, first compound 0.000949 µM): 88%; viability, T/C (second compound 0.316 µM, first compound 0.003 µM): 75.5%; viability, T/C (second compound 0.316 µM, first compound 0.00949 µM): 16.6%; viability, T/C (second compound 0.316 µM, first compound 0.03 µM): 5.34%; viability, T/C (second compound 0.316 µM, first compound 0.0949 µM): 3.26%; viability, T/C (second compound 0.316 µM, first compound 0.3 µM): 2.5%; viability, T/C (second compound 1 µM, first compound 0.000949 µM): 96.8%; viability, T/C (second compound 1 µM, first compound 0.003 µM): 65%; viability, T/C (second compound 1 µM, first compound 0.00949 µM): 14.1%; viability, T/C (second compound 1 µM, first compound 0.03 µM): 6.51%; viability, T/C (second compound 1 µM, first compound 0.0949 µM): 3.19%; viability, T/C (second compound 1 µM, first compound 0.3 µM): 2.39%; viability, T/C (second compound 3.16 µM, first compound 0.000949 µM): 81.5%; viability, T/C (second compound 3.16 µM, first compound 0.003 µM): 50.7%; viability, T/C (second compound 3.16 µM, first compound 0.00949 µM): 14.6%; viability, T/C (second compound 3.16 µM, first compound 0.03 µM): 5.63%; viability, T/C (second compound 3.16 µM, first compound 0.0949 µM): 2.91%; viability, T/C (second compound 3.16 µM, first compound 0.3 µM): 2.49%; viability, T/C (second compound 10 µM, first compound 0.000949 µM): 81.4%; viability, T/C (second compound 10 µM, first compound 0.003 µM): 39%; viability, T/C (second compound 10 µM, first compound 0.00949 µM): 14%; viability, T/C (second compound 10 µM, first compound 0.03 µM): 6.45%; viability, T/C (second compound 10 µM, first compound 0.0949 µM): 3.27%; viability, T/C (second compound 10 µM, first compound 0.3 µM): 2.66%

Question: For `Nc1ccn(C2OC(CO)C(O)C2(F)F)c(=O)n1` (stereo not given) + CC(CO)NC(=O)c1cc(-c2ccc(Cl)cc2)nn(-c2cnn(C)c2)c1=O, which IC50 (second compound 0.1 µM) is on record?
Answer: Its IC50 is under 31.6 nM.

Question: And the IC50 (second compound 0.316 µM)?
Answer: The IC50 was under 31.6 nM.

Question: What about the IC50 (second compound 1 µM) of the same compound?
Answer: The IC50 was under 31.6 nM.

Question: And the IC50 (second compound 3.16 µM)?
Answer: Its IC50 is under 31.6 nM.

Question: What about the IC50 (second compound 10 µM) of the same compound?
Answer: The IC50 was under 31.6 nM.

Question: What about the viability, T/C [1] of the same compound?
Answer: Its viability, T/C is 4.79%.

Question: What about the viability, T/C [2] of the same compound?
Answer: Its viability, T/C is 4.46%.

Question: What about the viability, T/C [3] of the same compound?
Answer: Its viability, T/C is 2.56%.

Question: And the viability, T/C [4]?
Answer: Its viability, T/C is 4.39%.

Question: And the viability, T/C [5]?
Answer: Its viability, T/C is 3.18%.

Question: And the viability, T/C [6]?
Answer: The viability, T/C was 4.27%.

Question: What about the viability, T/C [7] of the same compound?
Answer: Its viability, T/C is 5.24%.

Question: And the viability, T/C [8]?
Answer: Its viability, T/C is 4.16%.

Question: And the viability, T/C [9]?
Answer: Its viability, T/C is 4.42%.

Question: What about the viability, T/C [10] of the same compound?
Answer: Its viability, T/C is 3.7%.

Question: What about the viability, T/C [11] of the same compound?
Answer: The viability, T/C was 4.85%.

Question: What about the viability, T/C [12] of the same compound?
Answer: Its viability, T/C is 6.51%.

Question: What about the viability, T/C [13] of the same compound?
Answer: Its viability, T/C is 5.01%.

Question: And the viability, T/C [14]?
Answer: Its viability, T/C is 3.82%.

Question: What about the viability, T/C [15] of the same compound?
Answer: Its viability, T/C is 4.34%.

Question: And the viability, T/C [16]?
Answer: Its viability, T/C is 4.23%.

Question: And the viability, T/C [17]?
Answer: Its viability, T/C is 4.33%.

Question: And the viability, T/C [18]?
Answer: Its viability, T/C is 4.11%.

Question: And the viability, T/C [19]?
Answer: The viability, T/C was 5.21%.

Question: What about the viability, T/C [20] of the same compound?
Answer: The viability, T/C was 4.49%.

Question: What about the viability, T/C [21] of the same compound?
Answer: The viability, T/C was 4.44%.

Question: What about the viability, T/C [22] of the same compound?
Answer: The viability, T/C was 4.62%.

Question: And the viability, T/C [23]?
Answer: The viability, T/C was 4.8%.

Question: And the viability, T/C [24]?
Answer: Its viability, T/C is 5.89%.

Question: And the viability, T/C [25]?
Answer: Its viability, T/C is 4.43%.

Question: What about the viability, T/C [26] of the same compound?
Answer: Its viability, T/C is 3.72%.

Question: And the viability, T/C [27]?
Answer: The viability, T/C was 4.66%.

Question: What about the viability, T/C [28] of the same compound?
Answer: Its viability, T/C is 4.02%.

Question: And the viability, T/C [29]?
Answer: Its viability, T/C is 5.31%.

Question: What about the viability, T/C [30] of the same compound?
Answer: Its viability, T/C is 6.31%.

Question: Which results are given for `O=C(c1cc(Cc2n[nH]c(=O)c3ccccc23)ccc1F)N1CCN(C(=O)C2CC2)CC1` + CC(CO)NC(=O)c1cc(-c2ccc(Cl)cc2)nn(-c2cnn(C)c2)c1=O?
Answer: IC50 (second compound 0.1 µM): > 10000 nM; IC50 (second compound 0.316 µM): > 10000 nM; IC50 (second compound 1 µM): > 10000 nM; IC50 (second compound 3.16 µM): > 10000 nM; IC50 (second compound 10 µM): > 10000 nM; viability, T/C [1]: 96.1%; viability, T/C [2]: 101%; viability, T/C [3]: 98.8%; viability, T/C [4]: 102%; viability, T/C [5]: 102%; viability, T/C [6]: 91.5%; viability, T/C [7]: 100%; viability, T/C [8]: 102%; viability, T/C [9]: 97.9%; viability, T/C [10]: 101%; viability, T/C [11]: 98.8%; viability, T/C [12]: 98.9%; viability, T/C [13]: 98.7%; viability, T/C [14]: 102%; viability, T/C [15]: 99.9%; viability, T/C [16]: 103%; viability, T/C [17]: 101%; viability, T/C [18]: 99%; viability, T/C [19]: 97.3%; viability, T/C [20]: 109%; viability, T/C [21]: 95.3%; viability, T/C [22]: 104%; viability, T/C [23]: 99.8%; viability, T/C [24]: 89.9%; viability, T/C [25]: 113%; viability, T/C [26]: 107%; viability, T/C [27]: 108%; viability, T/C [28]: 114%; viability, T/C [29]: 107%; viability, T/C [30]: 90.9%
